# From patent publication US11427549B2, “Pyrimidinyloxy benzo-fused compounds as herbicides” (FMC Corporation, priority 2017, dated 2022)
# Columns and labels:
# [1] = system: blackgrass (Alopecurus myosuroides); assay: Test A postemergence, blackgrass; format: in vivo; settings: Alopecurus myosuroides, post-emergence, 240 h, 0 to 100 scale (0 no effect, 100 complete control), read-out: Plant response rating, Blackgrass; for pest or weed control at 31 g/ha: 31 g ai/ha; for pest or weed control at 125 g/ha: 125 g ai/ha
# [2] = system: wheat (Triticum aestivum); assay: Test A postemergence, wheat; format: in vivo; settings: Triticum aestivum, post-emergence, 240 h, 0 to 100 scale (0 no effect, 100 complete control), read-out: Plant response rating, Wheat; for plant injury at 31 g/ha: 31 g ai/ha; for plant injury at 125 g/ha: 125 g ai/ha
# [3] = system: barnyardgrass (Echinochloa crus-galli); assay: Test A preemergence, barnyardgrass; format: in vivo; settings: Echinochloa crus-galli, pre-emergence, 240 h, 0 to 100 scale (0 no effect, 100 complete control), read-out: Plant response rating, Barnyardgrass; for pest or weed control at 31 g/ha: 31 g ai/ha; for pest or weed control at 125 g/ha: 125 g ai/ha
# [4] = system: ragweed (common ragweed, Ambrosia elatior); assay: Test A postemergence, ragweed; format: in vivo; settings: Ambrosia artemisiifolia, post-emergence, 240 h, 0 to 100 scale (0 no effect, 100 complete control), read-out: Plant response rating, Ragweed; for pest or weed control at 31 g/ha: 31 g ai/ha; for pest or weed control at 125 g/ha: 125 g ai/ha
# [5] = system: barnyardgrass (Echinochloa crus-galli); assay: Test B flooded paddy test, barnyardgrass; settings: Echinochloa crus-galli, read-out: Plant response rating, Barnyardgrass (0 to 100 scale, 0 is no effect, 100 is complete control)
# corn (Zea mays) = assay: Test A postemergence, corn; format: in vivo; settings: Zea mays, post-emergence, 240 h, 0 to 100 scale (0 no effect, 100 complete control); for Corn plant response rating (crop injury, 0 = no effect, 100 = complete kill) at 31 g/ha: 31 g ai/ha; for Corn plant response rating (crop injury, 0 = no effect, 100 = complete kill) at 125 g/ha: 125 g ai/ha
# [6] = system: pigweed (Amaranthus retroflexus); assay: Test A preemergence, pigweed; format: in vivo; settings: Amaranthus retroflexus, pre-emergence, 240 h, 0 to 100 scale (0 no effect, 100 complete control), read-out: Plant response rating, Pigweed; for pest or weed control at 31 g/ha: 31 g ai/ha; for pest or weed control at 125 g/ha: 125 g ai/ha
# rice (Oryza sativa) = assay: Test B flooded paddy test, rice; settings: Oryza sativa, read-out: Plant response rating, Rice (0 to 100 scale, 0 is no effect, 100 is complete control)
# [7] = system: ragweed (common ragweed, Ambrosia elatior); assay: Test A preemergence, ragweed; format: in vivo; settings: Ambrosia artemisiifolia, pre-emergence, 240 h, 0 to 100 scale (0 no effect, 100 complete control), read-out: Plant response rating, Ragweed; for pest or weed control at 125 g/ha: 125 g ai/ha; for pest or weed control at 31 g/ha: 31 g ai/ha
# [8] = system: pigweed (Amaranthus retroflexus); assay: Test A postemergence, pigweed; format: in vivo; settings: Amaranthus retroflexus, post-emergence, 240 h, 0 to 100 scale (0 no effect, 100 complete control), read-out: Plant response rating, Pigweed; for pest or weed control at 31 g/ha: 31 g ai/ha; for pest or weed control at 125 g/ha: 125 g ai/ha
# [9] = system: ryegrass, Italian (Italian ryegrass, Lolium multiflorum); assay: Test A postemergence, ryegrass, Italian; format: in vivo; settings: Lolium multiflorum, post-emergence, 240 h, 0 to 100 scale (0 no effect, 100 complete control), read-out: Plant response rating, Ryegrass, Italian; for pest or weed control at 31 g/ha: 31 g ai/ha; for pest or weed control at 125 g/ha: 125 g ai/ha
# [10] = system: ryegrass, Italian (Italian ryegrass, Lolium multiflorum); assay: Test A preemergence, ryegrass, Italian; format: in vivo; settings: Lolium multiflorum, pre-emergence, 240 h, 0 to 100 scale (0 no effect, 100 complete control), read-out: Plant response rating, Ryegrass, Italian; for pest or weed control at 31 g/ha: 31 g ai/ha; for pest or weed control at 125 g/ha: 125 g ai/ha
# [11] = system: barnyardgrass (Echinochloa crus-galli); assay: Test A postemergence, barnyardgrass; format: in vivo; settings: Echinochloa crus-galli, post-emergence, 240 h, 0 to 100 scale (0 no effect, 100 complete control), read-out: Plant response rating, Barnyardgrass; for pest or weed control at 31 g/ha: 31 g ai/ha; for pest or weed control at 125 g/ha: 125 g ai/ha
# [12] = system: ducksalad (Heteranthera limosa); assay: Test B flooded paddy test, ducksalad; settings: Heteranthera limosa, read-out: Plant response rating, Ducksalad (0 to 100 scale, 0 is no effect, 100 is complete control)
# kochia (Kochia scoparia) [13] = assay: Test A preemergence, kochia; format: in vivo; settings: Bassia scoparia, pre-emergence, 240 h, 0 to 100 scale (0 no effect, 100 complete control), read-out: Plant response rating, Kochia; for pest or weed control at 31 g/ha: 31 g ai/ha; for pest or weed control at 125 g/ha: 125 g ai/ha
# [14] = system: galium (catchweed bedstraw, Galium aparine); assay: Test A postemergence, galium; format: in vivo; settings: Galium, post-emergence, 240 h, 0 to 100 scale (0 no effect, 100 complete control), read-out: Plant response rating, Galium; for pest or weed control at 31 g/ha: 31 g ai/ha; for pest or weed control at 125 g/ha: 125 g ai/ha
# kochia (Kochia scoparia) [15] = assay: Test A postemergence, kochia; format: in vivo; settings: Bassia scoparia, post-emergence, 240 h, 0 to 100 scale (0 no effect, 100 complete control), read-out: Plant response rating, Kochia; for pest or weed control at 31 g/ha: 31 g ai/ha; for pest or weed control at 125 g/ha: 125 g ai/ha
Structure (SMILES),pest or weed control at 31 g/ha [1],pest or weed control at 125 g/ha [1],plant injury at 31 g/ha [2],plant injury at 125 g/ha [2],pest or weed control at 31 g/ha [3],pest or weed control at 125 g/ha [3],pest or weed control at 31 g/ha [4],pest or weed control at 125 g/ha [4],pest or weed control at 250 g/ha [5],"Corn plant response rating (crop injury, 0 = no effect, 100 = complete kill) at 31 g/ha (corn (Zea mays))","Corn plant response rating (crop injury, 0 = no effect, 100 = complete kill) at 125 g/ha (corn (Zea mays))",pest or weed control at 31 g/ha [6],pest or weed control at 125 g/ha [6],plant injury at 250 g/ha (rice (Oryza sativa)),pest or weed control at 125 g/ha [7],pest or weed control at 31 g/ha [8],pest or weed control at 125 g/ha [8],pest or weed control at 31 g/ha [9],pest or weed control at 125 g/ha [9],pest or weed control at 31 g/ha [10],other results
"O=C1c2cccc(Oc3ncc(Cl)cn3)c2C1CCC(F)(F)F (centres unmarked) [Compound 24, 2-[(5-Chloro-2-pyrimidinyl)oxy]-8-(3,3,3-trifluoropropyl)bicyclo[4.2.0]octa-1,3,5-trien-7-one]",30%,80%,0%,0%,0%,50%,0%,20%,25%,10%,20%,0%,30%,0%,0%,20%,70%,0%,20%,0%,pest or weed control at 125 g/ha [10]: 10%; pest or weed control at 31 g/ha [11]: 20%; pest or weed control at 125 g/ha [11]: 70%; pest or weed control at 250 g/ha [12]: 90%; pest or weed control at 31 g/ha (kochia (Kochia scoparia) [13]): 20%; pest or weed control at 125 g/ha (kochia (Kochia scoparia) [13]): 60%; pest or weed control at 31 g/ha [14]: 20%; pest or weed control at 125 g/ha [14]: 80%; pest or weed control at 31 g/ha (kochia (Kochia scoparia) [15]): 20%; pest or weed control at 125 g/ha (kochia (Kochia scoparia) [15]): 50%
"O=C1Cc2cccc(Oc3ncc(Cl)cn3)c2C(CCC(F)(F)F)O1 (centres unmarked) [Compound 28, 8-[(5-Chloro-2-pyrimidinyl)oxy]-1,4-dihydro-1-(3,3,3-trifluoropropyl)-3H-2-benzopyran-3-one]",10%,60%,0%,0%,0%,60%,10%,20%,0%,10%,20%,10%,100%,0%,0%,30%,70%,0%,0%,0%,pest or weed control at 31 g/ha [7]: 0%; pest or weed control at 125 g/ha [10]: 10%; pest or weed control at 31 g/ha [11]: 0%; pest or weed control at 125 g/ha [11]: 10%; pest or weed control at 250 g/ha [12]: 0%; pest or weed control at 31 g/ha (kochia (Kochia scoparia) [13]): 0%; pest or weed control at 125 g/ha (kochia (Kochia scoparia) [13]): 50%; pest or weed control at 31 g/ha [14]: 20%; pest or weed control at 125 g/ha [14]: 60%; pest or weed control at 31 g/ha (kochia (Kochia scoparia) [15]): 20%; pest or weed control at 125 g/ha (kochia (Kochia scoparia) [15]): 70%
"FC(F)(F)CC[C@H]1OCc2cccc(Oc3ncc(Cl)cn3)c21 [Compound 20, 5-Chloro-2-[[(3R)-1,3-dihydro-3-(3,3,3-trifluoropropyl)-4-isobenzofuranyl]oxy]-pyrimidine]",80%,100%,20%,90%,70%,100%,30%,70%,90%,30%,50%,100%,100%,30%,100%,100%,100%,30%,80%,10%,pest or weed control at 31 g/ha [7]: 30%; pest or weed control at 125 g/ha [10]: 60%; pest or weed control at 31 g/ha [11]: 40%; pest or weed control at 125 g/ha [11]: 100%; pest or weed control at 250 g/ha [12]: 100%; pest or weed control at 31 g/ha (kochia (Kochia scoparia) [13]): 100%; pest or weed control at 125 g/ha (kochia (Kochia scoparia) [13]): 100%; pest or weed control at 31 g/ha [14]: 90%; pest or weed control at 125 g/ha [14]: 100%; pest or weed control at 31 g/ha (kochia (Kochia scoparia) [15]): 90%; pest or weed control at 125 g/ha (kochia (Kochia scoparia) [15]): 100%
